Results: ChEMBL document CHEMBL4004830 (J Med Chem, 2017)
Active and inactive are the calls of the source. The calls are words filed in the database; no cut-off is given here.

Tests used:
[1] = Cmax in albino Wistar rat at 5 mg/kg, iv up to 24 hrs by LC-MS/MS analysis; assay type: ADME, organism-based; design: dose 5 mg/kg, route intravenous; settings: in vivo
MV4-11 = assay: Antitumor activity against human MV4-11 cells xenografted in nude BALB/c mouse assessed as tumor growth inhibition at 100 mg/kg, po qd administered for 33 consecutive days and left untreated for another 50 days; assay type: functional, organism-based

Cc1nc(NC2CCCC2)sc1-c1ccnc(Nc2ccc(N3CCOCC3)cn2)n1
Cmax [1]: 38.8 µM | TGI (MV4-11): Active
